# From ChEMBL document CHEMBL4834430, “Design and Structure-Activity Relationships of Isothiocyanates as Potent and Selective N-Acylethanolamine-Hydrolyzing Acid Amidase Inhibitors” (J Med Chem, 2021)
# pIC50: −log10 of the molar value.
# Columns and labels:
# [1] = target: T1, N-acylethanolamine-hydrolyzing acid amidase (Homo sapiens, UniProt Q02083); experiment: Inhibition of NAAA (unknown origin)
# T1 sequence (Q02083 whole entry): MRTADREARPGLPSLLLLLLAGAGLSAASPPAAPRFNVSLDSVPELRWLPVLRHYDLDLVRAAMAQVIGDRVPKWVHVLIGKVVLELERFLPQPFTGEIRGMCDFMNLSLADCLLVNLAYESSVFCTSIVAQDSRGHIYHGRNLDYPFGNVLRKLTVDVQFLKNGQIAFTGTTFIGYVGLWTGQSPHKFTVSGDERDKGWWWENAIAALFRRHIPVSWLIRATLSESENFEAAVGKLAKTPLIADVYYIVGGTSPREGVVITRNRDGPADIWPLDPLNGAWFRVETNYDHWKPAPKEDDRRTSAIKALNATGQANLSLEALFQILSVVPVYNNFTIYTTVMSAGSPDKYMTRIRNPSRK
# [2] = target: T1, N-acylethanolamine-hydrolyzing acid amidase; experiment: Inhibition of human NAAA using N-(4-methyl coumarin)-palmitamide as fluorogenic substrate preincubated for 90 mins followed by substrate addition by fluorescence assay
# [3] = Half life in human liver microsomes at 1 uM in presence of NADPH by LC-MS/MS analysis; type: ADME, Microsome
# [4] = Half life in rat liver microsomes at 1 uM in presence of NADPH by LC-MS/MS analysis; type: ADME, Microsome
# [5] = Half life in mouse liver microsomes at 1 uM in presence of NADPH by LC-MS/MS analysis; type: ADME, Microsome
# [6] = Drug metabolism in rat liver microsomes assessed as (1s,3s)-3-(2-fluoro-4-(2-methoxypyridin-3-yl)benzyloxy)cyclobutanamine formation at 1 uM in presence of NADPH by LC-MS/MS analysis; type: ADME, Microsome
# [7] = Drug metabolism in rat liver microsomes assessed as (2-fluoro-4-(2-methoxypyridin-3-yl)phenyl)methanol formation at 1 uM in presence of NADPH by LC-MS/MS analysis; type: ADME, Microsome
# [8] = Drug metabolism in rat liver microsomes assessed as (R)-2-amino-3-((1s,3S)-3-(2-fluoro-4-(2-methoxypyridin-3-yl)benzyloxy)cyclobutylcarbamothioylthio)propanoic acid formation at 1 uM in absence of NADPH by LC-MS/MS analysis; type: ADME, Microsome
# [9] = Drug metabolism in rat liver microsomes assessed as […] (R)-2-amino-3-((1s,3S)-3-(2-fluoro-4-(2-methoxypyridin-3-yl)benzyloxy)cyclobutylcarbamoylthio)propanoic acid formation at 1 uM in absence of NADPH by LC-MS/MS analysis; type: ADME
pIC50 [1],SMILES,pIC50 [2],half-life at 1 µM [3],half-life at 1 µM [4],half-life at 1 µM [5],Drug metabolism [6],Drug metabolism [7],Drug metabolism [8],Drug metabolism [9]
8.05,O=C(CCCCCc1cccc(Cl)c1)N1CCOC1=O,–,–,–,–,–,–,–,–
–,COc1ncccc1-c1ccc(CO[C@H]2C[C@@H](N=C=S)C2)c(F)c1,6.52,15.3 min,14.5 min,6.8 min,Metabolite_Detected,Metabolite_Detected,Metabolite_Detected,Metabolite_Detected
